Laboratory results as given in US7291456B2, “Method for determining differences in molecular interactions and for screening a combinatorial library” (The Regents of the University of California, priority 2002, dated 2007).

Tested on: human plasma
Assay: One-bead-one-compound cXXXXXc peptide library screening, biotinylated serum (first mixture) then plasma (target mixture), BCIP staining and (B-A)/A image analysis
Assay type: binding
Settings: 4 μg biotinylated serum, then 4 μg biotinylated plasma, 1 hour each at 23° C., sequence by automated peptide sequencing
From the text: General Method. The two mixtures of molecules to be compared were human plasma, referred to as “the target mixture,” and human serum, referred to as “the first mixture.” Both the plasma and serum were biotinylated with EZ-Link™ Sulfo-NHS-LC-Biotin from Pierce. Bead libraries were generated on TenteGel from Rapp Polymere. Amino acids used in bead library synthesis were from Synpep. Bead library screenings were done in disposable polypropylene columns from Perkin Elmer Life Sciences. All buffer reagents were from Sigma unless otherwise noted. PBS, TBS and BCIP buffers were as described in Lam, Kit S. and Michal Lebl, “Synthesis of a one-bead one-compound combinatorial peptide library,” Methods in Molecular Biology, vol. 87, Combinatorial Peptide Library Protocols. Edited by Shmuel Cabilly (Humana Press: 1997), 1-6. Bead staining utilized BCIP from Bio Synth AG which was hydrolyzed with streptavidin-alkaline phosphatase conjugate from Zymed. Bead immobilization was done in SeaPlaque agarose from Bio Wittaker Molecular Applications in Omni tray lids from Nunc/Nalgene. Scanned images were generated on a flatbed transparency scanner from Umax. Computer imaging was accomplished with Adobe Photoshop and compiler software was from Metrowerks. Amino acid sequencing was done on an Applied Biosystems Procise 494 Protein Sequencer.
Library Synthesis. “One-bead-one-compound” cXXXXXc peptide libraries were synthesized essentially as described (Lam and Lebl, Methods in Molecular Biology, vol. 87) using the “split synthesis approach,” where “X” denotes any L-amino acid except for cysteine, arginine, and lysine, and “c” is D-cysteine. TenteGel was used as a solid support and standard Fmoc chemistry was used for the solid phase peptide synthesis reactions. (Stewart and Young 1984. Solid-Phase Peptide Synthesis. Pierce Chemical Co. Atherton, E. and R. C. Sheppard. 1989. Solid Phase Peptide Synthesis: A Practical Approach. Practical Approach Series.)
Extract Preparation and Biotinlation. Human plasma and serum were prepared by the collection of human blood into stoppered vacuum tubes in the presence of Na-heparin as an anti-coagulant for plasma and in the absence of Na-heparin for serum. Blood was allowed to clot in the tubes for 25 minutes after which the top layer of […] was collected. Na-heparin was added to the serum to equalize the amount of Na-heparin in plasma and serum after which both samples were centrifuged at 1000 rpm for 20 minutes in a Sorvall SS34 centrifuge rotor. After centrifugation, samples were aliquoted, dialyzed against PBS for four hours at 4° C., quantitated and stored frozen at −80° C. The concentrations of the plasma and serum protein extracts after dialysis were 66.5 and 57.8 mg/ml, respectively.
Plasma and serum were tagged using biotinylation where biotin was the label and streptavidin alkaline phosphatase conjugate was the label binder. Biotinylation was performed according to the manufacturer's instructions. About 0.2 mg of protein was incubated in PBS with a 20-fold molar excess of sulfo-NHS-LC-biotin for 30 minutes at 23° C. The reaction was quenched by the addition of Tris-HCl pH 7.9 to 100 mM. For calculations of molarity, the average molecular weight of the proteins in the plasma and serum solutions was assumed to be 50 kD.
Library Screening. Four experiments were conducted. On average, 250,000 “one-bead-one-compound” beads were screened in each experiment. All bead reactions were performed in 1.5 ml polypropylene disposable micro-columns with inside dimensions of 37 mm×6 mm. Unless otherwise noted, all bead reactions were incubated on a Lab quake bench top rotator (Barnstead/Thermolyne) for 1 hour at 23° C. Bead libraries were stored in PBS with 0.05% sodium-azide. All incubation buffers and components were thoroughly mixed before addition to the column containing the bead library. […]

| Substance | ligands identified on true positive beads (beads that bound molecules essentially unique to the plasma) |
| --- | --- |
| cAHVWHc | identified |
| cFHNNHc | identified |
| cGIHYLc | identified |
| cHGHTIc | identified |
| cHTLHQc | identified |
| cHVHPWc | identified |
| cHYHVSc | identified |
| cHYQTGc | identified |
| cMHGHFc | identified |
| cNLTHIc | identified |
| cPFHHSc | identified |
| cYGHFSc | identified |
